From patent publication US8912224B2, “Substituted 2-(chroman-6-yloxy)-thiazoles and their use as pharmaceuticals” (Sanofi, priority 2011, dated 2014) come the findings set out here.

In test [1] the target is T1, human NCX1 (Homo sapiens (Human), UniProt P32418). Put plainly: Inhibition of Ca2+ influx into cells (NCX1 reverse mode), FLIPR Fluo-4 assay. Particulars: inhibition of NCX1 in reverse mode (Ca2+ influx into cells); read-out: NCX1rv IC50. It is filed as cell-based. The text has this:
(§1) The sodium/calcium exchanger NCX1 can transport calcium ions and sodium ions through the cell membrane. The transport is an exchange of Ca^2+and Na^+in two directions depending on membrane potential and ion gradients. At the first direction, named “forward mode” or “calcium export mode”, Ca^2+is transported out of the cell and Na^+ is transported into the cell. At the other direction, named “reverse mode” or “calcium import mode”, the transport directions are vice versa. The effect of the compounds of the invention on NCX1 was determined in CHO cells stably expressing human NCX1 (gene symbol SLC8A1; cf. WO 2009/115238). The assay is based on the monitoring of intracellular Ca^2+concentrations using a calcium-sensitive fluorescence dye which is detected by means of a FLIPR device (Fluorimetric Imaging Plate Reader, Molecular Devices).
Assay Technology—Reverse Mode
The assay is based on the monitoring of intracellular Ca^2+concentrations using the calcium-sensitive dye Fluo-4. CHO cells expressing NCX1 were loaded with the dye by means of the acetoxymethyl ester Fluo-4 AM (Invitrogen, F14202), which is cleaved intracellularly by esterase activity to yield the charged species of free Fluo-4. After an preincubation period with the test compound, Gramicidine (Sigma, G5002) was added. Gramicidine is an ionophor for Na^+ions mediating an increase of intracellular Na^+ions. Consequently, intracellular Na^+ions are exchanged against extracellular Ca^2+ions (Ca^2+influx, reverse mode). The intracellular elevation of Ca^2+ ions was detected by measuring the fluorescence of Fluo-4 at a wavelength of 520 nm by a FLIPR device.
Briefly, for the reverse mode transport assay 18000 cells per well were seeded into a 96 well microplate (Corning COSTAR 3904) and incubated overnight in culture medium (1× Nut Mix F12 (Ham) (Gibco, 21765-029); 10% (v/v) fetal calf serum (PAA Gold, A15-649); 450 μg/ml Geneticin (Gibco, 10131-027)). A total volume of 100 μl medium per well was used. For the preparation of the FLIPR assay, the culture medium was removed from the plates and 100 μl of dye solution (2 μM Fluo-4 AM; 0.02% (v/v) Pluronic F-127 (20%, Invitrogen, P3000MP); 0.1% (v/v) bovine albumin solution (30% (v/v), Sigma, A9205) in assay buffer (133.8 mM NaCl (Sigma, S5886); 4.7 mM KCl (Sigma, P3911); 1.25 mM MgCl2 (Merck, 1.05833.0250); 3.5 mM CaCl2 (Merck, 1.02083.0250); 5 mM glucose (Sigma, G7021); 10 mM Hepes (Sigma, H4034); 0.01% (v/v) Pluronic F-127 (5%, Sigma, P2443); 2.5 mM Probenecid (Maybridge, SB00915EB); pH 7.4)) were added into each well. The plates were incubated in the dark at room temperature for 80 min. After the incubation period, the dye solution was removed and the wells were washed with 100 μl of assay buffer. Then 80 μl of a solution of the test compound in assay buffer in different concentrations were added into the wells. The plates were incubated at 16° C. for 45 min. Meanwhile a 60 μM solution of Gramicidine in assay buffer (4° C.) was prepared and stored in the wells of a 96 well microplate (96 well microplate, polypropylene, U-shape (Greiner Bio-One, 650201)) at 4° C. until measurement was started. The fluorescence monitoring was performed at 240 measuring points with measurement intervals of 2 sec. After the fifth measuring point, 40 μl of the Gramicidine solution were added to each well of the assay plates to give a final Gramicidine concentration of 20 μM. For the determination of the IC50 values the minimal fluorescence value was subtracted from the maximal fluorescence value for all measuring points. The calculation of the IC50 values via the percentage inhibitions of Ca^2+influx into cells (reverse mode) effected by the test compound was performed in Biost@t Speed 2.0.

Test [2] deals with Sprague-Dawley rats. Put plainly: In vivo method for determining the effect on heart contractility (left ventricular dp/dtmax) in anesthetized rats. Conditions: rat, versus solvent control; for Contractility increase (%): i.v. infusion. As to the method:
B) In vivo Method for Determining the Effect on Heart Contractility Adult male Sprague-Dawley rats (Harlan […], Germany) weighing 340 to 370 g were anesthetized with pentobarbital (100 mg/kg i.p.) and ventilated with a mixture of oxygen (40%) and room air (60%) at a tidal volume of 1 ml/100 g at 60 breaths/min. Body temperature was maintained at 36.5±0.3° C. with a heating lamp and was monitored with a rectal thermo sensor. Systemic blood pressure was measured in the left carotid artery using a pressure transducer (Combitrans; B. Braun Melsungen AG, Melsungen, Germany) connected to a DC-bridge-amplifier (PLUGSYS/ADC Type 663; Harvard Apparatus GmbH, March-Hugstetten, Germany). The electrocardiogram was measured as lead II via subcutaneously placed electrodes connected to a Heart-Rate-Module ([…] Type 669; Harvard Apparatus GmbH, March-Hugstetten, Germany). A micro-tip catheter (2 French, SPR-320; Millar Instruments, Houston, Tex., USA) was placed via the right carotid artery into the left ventricle, and the left ventricular pressure (LVP) and the end diastolic pressure (EDP) were continuously measured. Registration of the hemodynamic data was performed via an analog digital converter by a personal computer using Notocord software (HEM version 3.5). Left ventricular contractility (dp/dtmax) and relaxation (dp/dtmin) were calculated from the LVP signal. For intravenous administration of the test compounds, the left jugular vein was prepared and a PP-50 catheter was inserted. Test compounds were administered either by intravenous bolus injection or by intravenous infusion by means of an infusion pump (Unita; B. Braun Melsungen AG, Melsungen, Germany). […] In a typical experiment, several dosages of the test compound were administered subsequently at increasing doses. Statistical significance of the data obtained with drug vs control experiments, in which solvent was administered, was evaluated with the 2-sided ANOVA test (program Everstat). Increases in left ventricular contractility (percent increase) by example compounds are given in Table 3 in comparison to control experiments in which solvent was administered.

Test [3] addresses T1, human NCX1. Put plainly: Inhibition of Ca2+ efflux out of cells (NCX1 forward mode), FLIPR assay. It counts as cell-based. Particulars: CHO cells stably expressing human NCX1, Ionomycin 2 μM, read-out: NCX1fw IC50.
From the text: as §1
Assay Technology—Forward Mode
The assay is based on the monitoring of intracellular Ca^2+concentrations using the PBX Calcium Assay Kit from BD (Becton, Dickinson and Company) with calcium indicator dye 51-9000177BKa (BD, 640177), CHO cells expressing NCX1 were loaded with the dye, and after a preincubation period with the test compound, lonomycin (Calbiochem, 407950) was added. Ionomycin is an ionophor for Ca^2+ions mediating an increase of intracellular Ca^2+ions. Consequently, intracellular Ca^2+ions are exchanged against extracellular Na^+ions (Ca^2+efflux, forward mode). The decrease of intracellular Ca^2+ions was detected by measuring the fluorescence of the calcium indicator dye at a wavelength of 520 nm by a FLIPR device.
Briefly, similarly as for the reverse mode, for the forward mode transport assay 18000 cells per well were seeded into a 96 well microplate (Corning COSTAR 3904) and incubated overnight in culture medium (cf. above). A total volume of 100 μl medium per well was used. For the preparation of the FLIPR assay, the culture medium was removed from the plates and 100 μl of assay buffer (133.8 mM NaCl (Sigma, S5886); 4.7 mM KCl (Sigma, P3911); 1.25 mM MgCl2 (Merck, 1.05833.0250); 3.5 mM CaCl2 (Merck, 1.02083.0250); 5 mM glucose (Sigma. G7021); 10 mM Hepes (Sigma, H4034); pH 7.4)) were added to each well in a washing step. Assay buffer was removed, and 100 μl of a solution of the test compound in assay buffer in different concentrations were added into the wells. Further, 100 μl of dye solution (0.09% (v/v) calcium indicator dye, 9.1% (v/v) signal enhancer (from PBX Calcium Assay Kit); in assay buffer) were added into each well. The plates were incubated in the dark at room temperature for 60 min. Meanwhile a 10 μM solution of lonomycin in assay buffer (additionally containing 0.05% fetal calf serum (cf. above); 4° C.) was prepared and stored in the wells of a 96 well microplate (96 well microplate, polypropylene, U-shape (Greiner Bio-One, 650201)). The fluorescence monitoring was performed at 60 measuring points with measurement intervals of 2 sec. After the fifth measuring point, 50 μl of the lonomycin solution were added to each well of the assay plate to give a final lonomycin concentration of 2 μM. For the determination of the IC50 values the minimal fluorescence value was subtracted from the maximal fluorescence value for the fifteenth to fifty-fifth measuring points. The calculation of the IC50 values via the percentage inhibitions of Ca^2+efflux out of cells (forward mode) effected by the test compound was performed in Biost@t Speed 2.0. “NCX1fw IC50” in Table 2 means the IC50 value for inhibition of NCX1 in forward mode (in μM (micromol/liter)).

T1 sequence (P32418 whole entry, looked up): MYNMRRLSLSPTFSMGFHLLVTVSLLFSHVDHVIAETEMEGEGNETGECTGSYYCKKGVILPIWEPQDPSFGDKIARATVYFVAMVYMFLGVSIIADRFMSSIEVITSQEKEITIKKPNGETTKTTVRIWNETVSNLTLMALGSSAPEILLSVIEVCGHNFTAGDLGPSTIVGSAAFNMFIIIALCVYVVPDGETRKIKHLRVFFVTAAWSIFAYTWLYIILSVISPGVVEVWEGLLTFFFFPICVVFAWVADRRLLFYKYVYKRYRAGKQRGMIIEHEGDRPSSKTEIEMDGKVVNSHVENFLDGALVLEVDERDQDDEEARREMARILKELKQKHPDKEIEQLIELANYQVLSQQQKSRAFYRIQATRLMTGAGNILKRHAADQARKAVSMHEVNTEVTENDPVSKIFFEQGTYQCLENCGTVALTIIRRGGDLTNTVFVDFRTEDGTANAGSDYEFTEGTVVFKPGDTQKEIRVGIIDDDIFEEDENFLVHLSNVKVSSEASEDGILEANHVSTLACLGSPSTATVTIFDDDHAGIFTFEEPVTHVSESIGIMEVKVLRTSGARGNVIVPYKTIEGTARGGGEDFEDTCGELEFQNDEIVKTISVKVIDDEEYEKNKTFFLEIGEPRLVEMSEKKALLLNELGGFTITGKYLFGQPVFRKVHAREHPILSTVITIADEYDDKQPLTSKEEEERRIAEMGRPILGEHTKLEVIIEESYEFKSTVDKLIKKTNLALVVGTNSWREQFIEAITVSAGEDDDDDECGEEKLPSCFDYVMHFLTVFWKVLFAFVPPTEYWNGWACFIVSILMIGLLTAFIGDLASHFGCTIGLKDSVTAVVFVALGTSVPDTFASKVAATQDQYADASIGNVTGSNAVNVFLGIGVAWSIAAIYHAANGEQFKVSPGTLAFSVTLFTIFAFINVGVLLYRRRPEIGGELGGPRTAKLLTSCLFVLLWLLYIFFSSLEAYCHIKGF

With “2-[2-(2,6-Dimethyl-phenyl)-chroman-6-yloxy]-thiazole-5-carboxylic acid [2-(2-oxo-imidazolidin-1-yl)-ethyl]-amide [compound 347]”, the IC50 in test [1] amounted to 1.5 µM. `O=C(NC1CC1)c1cnc(Oc2ccc3c(c2)CCC(c2ccccc2)O3)s1` (stereo not drawn) [Example 315, 2-(2-Phenyl-chroman-6-yloxy)-thiazole-5-carboxylic acid cyclopropylamide]: the change in vivo at 0.1 mg/kg in test [2] (iv, i.v. bolus injection, 0.1 mg/kg, read-out: Contractility increase (%)) came to 28%. The change in vivo at 0.3 mg/kg in test [2] (iv, i.v. bolus injection, 0.3 mg/kg, read-out: Contractility increase (%)) is 41%. Besides, in test [2] (iv, i.v. bolus injection, 1.0 mg/kg, read-out: Contractility increase (%)), the change in vivo at 1 mg/kg stood at 64%. Further, in test [3], the IC50 came out at 3.3 µM. For the molecule `Cc1ccccc1[C@@H]1CCc2cc(Oc3ncc(C(=O)NCCOP(=O)([O-])[O-])s3)ccc2O1.[Na+].[Na+]` [Example 345, Phosphoric acid mono-(2-{[2-((S)-2-o-tolyl-chroman-6-yloxy)-thiazole-5-carbonyl]-amino}-ethyl)ester disodium salt], the entries for the “Contractility increase (%)” value in test [2] (0.03 mg/kg/min) and in test [2] (0.1 mg/kg/min) were 32% and 85%, respectively. With `Cc1csc(CCNCc2cnc(Oc3ccc4c(c3)CCC(c3ccccc3)O4)s2)n1` (stereo not drawn) [compound 151, [2-(4-Methyl-thiazol-2-yl)-ethyl]-[2-(2-phenyl-chroman-6-yloxy)-thiazol-5-ylmethy]-amine], in test [1], the IC50 stood at 0.4 µM. For `CC[C@H](C)[C@H](NC(=O)c1cnc(Oc2ccc3c(c2)CCC(c2cccnc2)O3)s1)C(=O)O` (stereo partly drawn) [compound 270, (23,3S)-3-Methyl-2-{[2-(2-pyridin-3-yl-chroman-6-yloxy)-thiazole-5-carbonyl]-amino}-pentanoic acid], the IC50 in test [1] came to 12.5 µM.

Broadly, the IC50 is the concentration that gives 50% inhibition.
